According to patent publication US4397868A, “Method of treating atherosclerosis with trisubstituted ureas” (American Cyanamid Company, priority 1982, dated 1983):

Test system: fatty acyl CoA:cholesterol acyl transferase (ACAT)
Assay: In vitro inhibition of fatty acyl CoA:cholesterol acyl transferase (ACAT), rat adrenal microsomal supernatant
Type: biochemical
Conditions: test compound final concentration 5.2 μg./ml., 14C-oleoyl CoA, 37° C., 10 minutes
Procedure: A representative compound of the present invention was assayed for a biological activity related to potential use as an antiatherosclerotic agent. The compound was tested in vitro for its ability to inhibit the enzyme fatty acyl CoA:cholesterol acyl transferase (ACAT).
A representative compound was tested for its ability to inhibit ACAT according to the following procedure:
Rat adrenals were homogenized in 0.2 M monobasic potassium phosphate buffer, pH 7.4, and centrifuged at 1000 times gravity for 15 minutes at 5° C. The supernatant, containing the microsomal fraction, served as the source of the cholesterol-esterifying enzyme, fatty acyl CoA:cholesterol acyl transferase (ACAT). A mixture comprising 50 parts of adrenal supernatant, 10 parts of albumin (BSA) (50 mg./ml.), 3 parts of test compound (final concentration 5.2 μg./ml.) and 500 parts of buffer was preincubated at 37° C. for 10 minutes. After treatment with 20 parts of oleoyl CoA (^14 C-0.4 μCi) the mixture was incubated at 37° C. for 10 minutes. A control mixture, omitting the test compound, was prepared and treated in the same manner. The lipids from the incubation mixture were extracted into an organic solvent and separated by thin-layer chromatography. The cholesterol ester fraction was counted in a scintillation counter. […]

Structure (SMILES): CCCCN(Cc1ccccc1)C(=O)Nc1ccccc1 [Example 1, 1-Benzyl-1-(n-butyl)-3-(phenyl)urea]
- inhibited ACAT: 82%
